Experimental data published in US20040214803A1, “Use of vitamin d3 analogue for the treatment of autoimmune diabetes” (priority 2001, published 2004).

Columns and labels:
[1] = system: CD4+ T cells; experiment: Intracellular cytokine production by CD4+ cells from treated NOD mice (PMA and ionomycin, flow cytometry); assay type: in vivo, mouse
Protocol: After removal of all visible pancreatic lymph nodes, pancreata were individually digested in 3 ml HBSS containing 1 mg/ml collagenase IV (Sigma), by shaking (200 rpm) at 37° C. for 15 min. Single cell suspensions were collected after diluting the enzyme with ice-cold HBSS containing 5% FCS (FETAL CALF SERUM) and removal of the aggregates by settling for 2 min on ice. Aggregates were further digested with collagenase IV at 0.5 mg/ml for 10 min, and at 0.25 mg/ml for 6 min. Single cell suspensions were washed three times, and passed over a MASC Pre-separation filter (Miltenyi Biotec) to remove cell aggragetes and clumps. Single cell suspensions were incubated with anti-CD4 mAb-coated Microbeads (Miltenyi Biotec) and applied onto Mini-MACS columns (Miltenyi Biotec). This procedure yielded a positive fraction containing CD4^+ cells. Immediately after purification cells were stimulated with PMA (PHORBOL MYRISTIC ACETATE) and ionomycin in complete medium, fixed, and stained the next day for intracellular production of cytokines.
Cells were stained for IFN-γ, IL-4, IL-10 and IL-2 as previously described (Trembleau, S., et al. Eur J Immunol. 1997,27:2330-2339). Reagents for intracytoplasmic staining contained 1% FCS, 0.5% saponin (Sigma), and 0.1% sodium azide. All incubations were performed at room temperature. Cells were washed, pre-incubated for 10 min with PBS(phosphate buffered saline)/FCS/saponin, and then incubated with FITC(fluorescein isothiocyanate)-labeled rat anti-mouse IFN-γ (XMG1.2) and PE (phycoerythrin)-labeled rat anti-IL-2 (JE56-5H4), rat anti-mouse IL-4 (11B11), or PE-labeled rat anti-mouse IL-10 (JES5-16E3). Isotype controls were FITC- and PE-labeled rat IgG1 (R3-34). After 30 min, cells were washed twice with PBS/FCS/saponin and then with PBS containing 5% of FCS without saponin to allow membrane closure. The cell surface was then stained with CyChrome-labeled anti-CD4 (L3T4) for 15 min at room temperature. Analysis was performed with a FACScan flow cytometer (Becton Dickinson, Mountain View, Calif.) equipped with CellQuest software, and 10,000 events were acquired.
To identify mechanisms accounting for the reduced type 1 DM development in 1,25-dihydroxy-16,23Z-diene-26,27-hexafluoro-19-nor vitamin D3-treated NOD mice, the cytokines produced by CD4^+ T cells in the spleen, pancreatic lymph node and pancreas-infiltrating cells of […] NOD mice, treated from 8 to 16 weeks of age with Compound A or vehicle were analyzed.
FIG. 4. (page 4/9) Cytokine production by CD4^+ cells from spleen, pancreatic lymph node and pancreas-infiltrating cells. Spleen (A), pancreatic lymph node (B) and pancreas-infiltrating (C) CD4^+ cells were obtained from untreated 8 week-old or 20 week-old NOD mice treated 5×/week p.o. from 8 to 16 weeks of age with vehicle or with 0.03 μg/Kg Compound A. Positively selected CD4^+ cells (2×10^5 cells/well) were stimulated with PMA and ionomycin and analyzed by flow cytometry for IFN-γ (abscissa) and IL-2, IL-4 or IL-10 (ordinate) production. Acquisition was performed on CD4^+ cells. Percentage of positive cells, set according to the isotype-matched controls (not shown), are shown in the top corner of each quadrant. Dot plots are from a representative experiment out of four performed. Bar graphs represent the mean ±SE of four independent experiments using pooled cells from 3 to 4 mice. The P values were calculated by Mann-Whitney U test (* indicates P<0.05 vs. 8 week-old NOD mice).

[2] = system: pancreas-infiltrating cells; experiment: Cytofluorimetric analysis of pancreas-infiltrating cells; assay type: in vivo, mouse; conditions: among 8 week-old, vehicle-treated and treated mice at 30 weeks
Protocol: After removal of all visible pancreatic lymph nodes, pancreata were individually digested in 3 ml HBSS containing 1 mg/ml collagenase IV (Sigma), by shaking (200 rpm) at 37° C. for 15 min. Single cell suspensions were collected after diluting the enzyme with ice-cold HBSS containing 5% FCS (FETAL CALF SERUM) and removal of the aggregates by settling for 2 min on ice. Aggregates were further digested with collagenase IV at 0.5 mg/ml for 10 min, and at 0.25 mg/ml for 6 min. Single cell suspensions were washed three times, and passed over a MASC Pre-separation filter (Miltenyi Biotec) to remove cell aggragetes and clumps. […]
Single-cell suspensions of pancreas-infiltrating, spleen or lymph node cells were incubated with anti-CD4 mAb-coated Microbeads (Miltenyi Biotec) and applied onto Mini-MACS columns (Miltenyi Biotec). […] Cells were analyzed with a FACScan flow cytometer equipped with CellQuest software (Becton Dickinson, Mountain View, Calif.).
B. Consecutive sections of the same islets were stained with anti-CD4, anti-CD8, anti-B220, anti-CD11b (Mac-1), and anti-CD11c (N418) mAbs. […] Pancreas-infiltrating cells isolated from untreated 8 week-old NOD mice, vehicle-treated and Compound A treated NOD mice at 30 weeks of age were stained with mAbs specific for the indicated surface molecules and analyzed by flow cytometry. […]

[3] = CD4+ T cells from pancreatic lymph nodes, vs 30 week-old vehicle-treated or 8 week-old NOD mice

SMILES: C[C@H](C/C=C\C(O)(C(F)(F)F)C(F)(F)F)C1=CC[C@H]2/C(=C/C=C3C[C@@H](O)C[C@H](O)C3)CCC[C@]12C [Compound A, 1,25-dihydroxy-16,23Z-diene-26,27-hexafluoro-19-nor vitamin D3]
- reduction of IFN-γ-producing cells [1, 3]: 3 fold
- reduction of IL-2 producing cells [1, 3]: 10 fold
- IL-4-producing cells ([1]; CD4+ cells, means of three experiments, 0.7±0.2% in 8 weeks old, 0.9±0.2% vehicle): 2.5±0.3%
- IFN-γ-producing cells ([1]; CD4+ pancreas-infiltrating cells, compared with vehicle-treated mice): similarly lower
- IL-10-producing CD4+ cells ([1]; mouse, in vivo): No increase
- percentage of CD4+, CD8+, B220+, CD11b+ and CD11c+ pancreas-infiltrating cells [2]: no difference
